Values quoted from earlier work in publication PMC3877923 (Journal of the American Chemical Society, 2013).
Marks after values point to notes of the source that are not given here.

Aqueous solubility S: << 1 ^b µg/mL
SMILES: Cc1cc(C#N)cc(C)c1Oc1nc(Nc2ccc(C#N)cc2)nc(N)c1Br [etravirine]
